Legend:
minke whale NIS (wNIS) = molecular target: T1, minke whale NIS (wNIS) (Balaenoptera acutorostrata, UniProt A0A384B8D1); assay: inhibition of […]mTcO4 uptake in transduced HeLa cells; assay type: cell-based
T1 sequence (A0A384B8D1 1-642): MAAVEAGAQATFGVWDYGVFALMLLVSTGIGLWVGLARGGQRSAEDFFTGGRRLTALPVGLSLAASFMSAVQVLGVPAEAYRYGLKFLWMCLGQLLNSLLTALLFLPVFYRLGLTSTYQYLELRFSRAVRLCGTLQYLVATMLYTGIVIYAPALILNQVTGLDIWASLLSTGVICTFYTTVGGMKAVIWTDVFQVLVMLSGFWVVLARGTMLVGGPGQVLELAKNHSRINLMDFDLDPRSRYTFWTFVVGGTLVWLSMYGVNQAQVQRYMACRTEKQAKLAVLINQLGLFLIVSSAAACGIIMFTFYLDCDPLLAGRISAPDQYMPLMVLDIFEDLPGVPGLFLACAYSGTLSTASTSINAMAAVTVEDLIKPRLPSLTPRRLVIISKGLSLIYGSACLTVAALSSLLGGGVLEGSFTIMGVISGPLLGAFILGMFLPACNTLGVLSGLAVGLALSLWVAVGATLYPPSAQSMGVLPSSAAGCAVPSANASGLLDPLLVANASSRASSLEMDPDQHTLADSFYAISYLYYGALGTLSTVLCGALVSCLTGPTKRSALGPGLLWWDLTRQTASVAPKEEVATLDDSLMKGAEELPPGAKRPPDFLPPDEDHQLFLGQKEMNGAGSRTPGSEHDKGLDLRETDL

human NIS (hNIS) = molecular target: T2, human NIS (hNIS) (Homo sapiens, UniProt Q92911); assay: as above; assay type: cell-based
T2 sequence (Q92911 1-643): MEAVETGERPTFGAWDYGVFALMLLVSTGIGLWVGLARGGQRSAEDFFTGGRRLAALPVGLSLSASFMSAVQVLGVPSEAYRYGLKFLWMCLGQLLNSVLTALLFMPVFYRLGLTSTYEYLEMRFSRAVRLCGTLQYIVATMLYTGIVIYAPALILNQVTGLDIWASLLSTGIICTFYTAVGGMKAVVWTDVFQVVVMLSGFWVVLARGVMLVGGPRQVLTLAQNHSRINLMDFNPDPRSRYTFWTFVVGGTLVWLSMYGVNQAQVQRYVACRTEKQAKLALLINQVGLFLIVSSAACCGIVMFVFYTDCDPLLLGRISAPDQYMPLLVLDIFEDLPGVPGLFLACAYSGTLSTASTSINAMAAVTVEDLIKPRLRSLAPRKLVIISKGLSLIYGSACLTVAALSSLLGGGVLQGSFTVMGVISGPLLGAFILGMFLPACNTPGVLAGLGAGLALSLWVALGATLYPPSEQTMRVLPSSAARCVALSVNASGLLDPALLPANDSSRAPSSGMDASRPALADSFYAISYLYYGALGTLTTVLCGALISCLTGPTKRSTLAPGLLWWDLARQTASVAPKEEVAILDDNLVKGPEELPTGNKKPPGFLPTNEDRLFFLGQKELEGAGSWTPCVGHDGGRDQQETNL

In the case of `[O-][Cl+3]([O-])([O-])O` [perchlorate], the IC50 (minke whale NIS (wNIS)) is reported as 2860 nM and the IC50 (human NIS (hNIS)) is reported as 195 nM.

— article PMC7791078 (Molecular Therapy, 2020)
